Assay [1] deals with T1, human GPR119 (Homo sapiens, UniProt Q8TDV5).
T1 sequence (Q8TDV5 1-335): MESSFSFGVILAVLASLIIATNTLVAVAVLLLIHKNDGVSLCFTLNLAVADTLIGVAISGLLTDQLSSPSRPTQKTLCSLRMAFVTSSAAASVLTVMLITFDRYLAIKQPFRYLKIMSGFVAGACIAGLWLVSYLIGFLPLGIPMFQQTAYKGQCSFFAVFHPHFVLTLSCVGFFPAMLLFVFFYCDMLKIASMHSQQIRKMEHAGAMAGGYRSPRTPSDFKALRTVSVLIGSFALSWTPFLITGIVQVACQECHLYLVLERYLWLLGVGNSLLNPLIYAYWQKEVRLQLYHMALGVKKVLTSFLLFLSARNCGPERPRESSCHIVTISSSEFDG
The assay can be described thus: cAMP HTRF functional assay (hGPR119 HEK-CRE beta-lactamase cells). In kind it is cell-based. Details: host or cells: HEK293-CRE beta-lactamase. The settings on record: for EC50: HTRF cAMP, 30 min, 400 microM IBMX, each line a separate determination. In short, it runs like this:
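hGPR119 HEK-CRE cells (5000/well), cultured overnight, then treated 30 min at room temperature with compound plus 400 microM IBMX (0.58% DMSO). cAMP measured by competitive HTRF immunoassay after 60 min lysis/detection, converted to nM via standard curve; EC50 from 4-parameter logistic fit.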
(Time-resolved FRET reads energy transfer from a long-lived donor to a nearby acceptor.)

Assay [2] addresses T1, human GPR119. The assay can be described thus: β-Arrestin PathHunter assay (U2OS hGPR119 β-arrestin cells). The format is cell-based. The settings on record: for EC50: U2OS hGPR119 β-arrestin cells, 90 min, each line a separate determination, read-out: Human B-arrestin Functional EC50; for Intrinsic Activity (Human B-arrestin) / Emax: percent of maximal activity relative to standard GPR119 agonist at 10 micromolar; for Emax: U2OS, read-out: Intrinsic Activity (Human B-arrestin). In outline:
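Cells carry ProLink-tagged GPR119 and EA-fused β-arrestin; 5000 cells/well were plated overnight in Opti-MEM with 2% charcoal-dextran serum. Compounds were applied for 90 min at 37 °C in HBSS/20 mM HEPES pH 7.0/0.1% BSA (0.5% DMSO), followed by Galacton Star substrate for 60 min at RT and a luminescence read. EC50 came from a 4-parameter logistic fit.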

Where [3] appears, read: percent of maximal activity relative to standard GPR119 agonist at 10 micromolar.

In general, EC50 refers to the concentration giving half of the maximal effect.

“And” between values parts separate entries of the source, which are not always exact repeats. Identical values can stand only once.

On to `Cc1c(O[C@H]2[C@@H]3COC[C@H]2CN(C(=O)OC2(C)CC2)C3)ncnc1N1CCc2ncccc21` [Example 25, 1-Methylcyclopropyl (9-anti)-9-{[6-(2,3-dihydro-1H-pyrrolo[3,2-b]pyridin-1-yl)-5-methylpyrimidin-4-yl]oxy}-3-oxa-7-azabicyclo[3.3.1]nonane-7-carboxylate], for which the “Intrinsic Activity (Human cAMP)” value on human GPR119 [1] (setting [3]) was 52.9% and 68.3% and 67.7% and 74.3% and 62.9%. On human GPR119 [2], the concentration for a half-maximal effect (EC50) was 14.7 nM and 12.4 nM and 19.3 nM and 40.7 nM and 18.2 nM; the “Intrinsic Activity (Human B-arrestin)” value is 58.7% and 81% and 78.6% and 68.6% and 74.5%.

Regarding `CCC1(OC(=O)N2C[C@H]3COC[C@@H](C2)[C@H]3Oc2ncnc(N3CCc4ncccc43)c2C)CC1` [Example 26, 1-Ethylcyclopropyl (9-anti)-9-{[6-(2,3-dihydro-1H-pyrrolo-[3,2-b]pyridin-1-yl)-5-methylpyrimidin-4-yl]oxy}-3-oxa-7-azabicyclo[3.3.1]nonane-7-carboxylate], the EC50 on human GPR119 [1] is 96.9 nM and 112 nM and 91.1 nM and 163 nM. In addition, the “Intrinsic Activity (Human cAMP)” value on human GPR119 [1] (setting [3]) was 65.1% and 67.6% and 43.6% and 50%. Also, at human GPR119 [2], the EC50 is 23.8 nM and 18.2 nM and 21.3 nM and 26.3 nM; the Emax was 68.6%; the “Intrinsic Activity (Human B-arrestin)” value is 82.5% and 68.9% and 73.4%.

As for `Cc1c(O[C@H]2[C@@H]3COC[C@H]2CN(C(=O)OC2(C)CCC2)C3)ncnc1N1CCc2ncccc21` [Example 27, 1-Methylcyclobutyl (9-anti)-9-{[6-(2,3-dihydro-1H-pyrrolo[3,2-b]pyridin-1-yl)-5-methylpyrimidin-4-yl]oxy}-3-oxa-7-azabicyclo[3.3.1]nonane-7-carboxylate], the concentration for a half-maximal effect (EC50) at human GPR119 [1] is 74.5 nM and 68.9 nM and 42.7 nM and 69.8 nM. The “Intrinsic Activity (Human cAMP)” value on human GPR119 [1] (setting [3]) was 43.5% and 30.6% and 28.4%. In addition, the Emax on human GPR119 [1] (percent of maximal activity relative to standard GPR119 agonist at 10 micromolar, read-out: Intrinsic Activity (Human cAMP)) was found to be 39.1%. Further, at human GPR119 [2], the EC50 was 4.02 nM and 22.9 nM and 5.81 nM and 11 nM; the Emax was 63.5%; the “Intrinsic Activity (Human B-arrestin)” value is 64.2% and 58.1% and 51.4%.

On to `Cc1c(O[C@@H]2[C@@H]3COC[C@H]2CN(C(=O)OC(C)C)C3)ncnc1N1CCc2ncccc21` [Example 29, Isopropyl (9-syn)-9-{[6-(2,3-dihydro-1H-pyrrolo[3,2-b]pyridin-1-yl)-5-methylpyrimidin-4-yl]oxy}-3-oxa-7-azabicyclo[3.3.1]nonane-7-carboxylate], for which the concentration giving a half-maximal response (EC50) at human GPR119 [1] and on human GPR119 [2] was above 10000 nM throughout.

The record behind these values is patent publication US20100285145A1, “GPR 119 MODULATORS” (PFIZER INC, priority 2009, published 2010).
